Like-named read-outs stand apart in the source and are kept apart here. Each block holds one compound with its values, some of them ahead of it.
Columns and labels:
Parameters in all cases: species or system Male Sprague-Dawley rats
isolated rat hearts [1] = assay: Global ischemia and reperfusion in isolated perfused (Langendorff) rat hearts: EDP, LDH release, double product
Procedure: anesthetized using 100 mg/kg sodium pentobarbital (i.p.). They were intubated and then treated with i.v. heparin (1000 U/kg). While mechanically ventilated, hearts were perfused in situ via retrograde cannulation of the aorta. […] A water-filled latex balloon, attached to a metal cannula, was inserted into the left ventricle and connected to a Statham pressure transducer for measurement of left ventricular pressure. The hearts were allowed to equilibrate for 15 minutes, at which time end diastolic pressure (EDP) was adjusted to 5 mm Hg and the balloon pressure was maintained for the duration of the experiment. Pre-ischemia or pre-drug function, heart rate and coronary flow (extracorporeal electromagnetic flow probe, Carolina Medical Electronics, King, N.C.) were then measured. Cardiac function was determined using double product of heart rate (HR) X left ventricular developed pressure (LVDP) divided by 1000. Cardiac temperature was maintained throughout the experiment by submerging the hearts in a heated chamber filled with 37°C buffer. All hearts were retreated with vehicle or drug for 10 minutes before the onset of ischemia. All drugs were given only before ischemia. The hearts were subjected to 25 minutes of global ischemia and 30 minutes of reperfusion. At the end of the experiment, EDP and LDH release were measured and used as an index of severity of ischemia.

isolated rat hearts [2] = assay: Time to contracture during global ischemia in isolated rat hearts, with isobolographic analysis of the combination; settings: read-out: EC₅₀ for percentage change in time to contracture
Procedure: anesthetized using 100 mg/kg sodium pentobarbital (i.p.). They were intubated and then treated with i.v. heparin (1000 U/kg). While mechanically ventilated, hearts were perfused in situ via retrograde cannulation of the aorta. The hearts were then excised and quickly moved to a Langendorff apparatus where they were perfused with Krebs-Henseleit bicarbonate buffer (112 mM sodium chloride, 25 mM sodium bicarbonate, 5 mM potassium chloride, 1.2 mM magnesium sulfate, 1 mM potassium […], 1.25 mM calcium chloride, 11.5 mM glucose and 2mM pyruvate bubbled with 95% oxygen - 5% carbon dioxide) at a constant perfusion pressure (75 mm Hg). A water-filled latex balloon, attached to a metal cannula, was inserted into the left ventricle and connected to a Statham pressure transducer for measurement of left ventricular pressure. The hearts were allowed to equilibrate for 15 minutes, at which time end diastolic pressure (EDP) was adjusted to 5 mm Hg and the balloon pressure was maintained for the duration of the experiment. Pre-ischemia or pre-drug function, heart rate and coronary flow (extracorporeal electromagnetic flow probe, Carolina Medical Electronics, King, N.C.) were then measured. Cardiac function was determined using double product of heart rate (HR) X left ventricular developed pressure (LVDP) divided by 1000. Cardiac temperature was maintained throughout the experiment by submerging the hearts in a heated chamber filled with 37°C buffer.
All hearts were retreated with vehicle or drug for 10 minutes before the onset of ischemia. All drugs were given only before ischemia. The hearts were subjected to 25 minutes of global ischemia and 30 minutes of reperfusion. At the end of the experiment, EDP and LDH release were measured and used as an index of severity of ischemia.
The effect of the combination of a potassium channel activator and a sulfhydryl containing compound was determined using a technique known as isobolographic analysis (R. J. Tallarida et al, "Minireview-Satistical Analysis of Drug-Drug and Site-Site Interactions with Isobolograms", Life Sciences, 45:947-961, 1989). This technique is commonly used to investigate the interaction between drugs.
Several specific concentration ratios (3:1, 12:1 and 30:1) of cromakalim to zofenopril respectively were tested and the effects of the combination determined. The concentration response curves for cromakalim and zofenopril were expressed as percentage increase in time to contracture from control. Time to contracture was measured as the time during ischemia for end diastolic pressure to increase by 5 mm Hg.
EC₅₀ for percentage change in time to contracture for cromakalim and zofenopril given alone or in the concentration ratios indicated were calculated.

isolated rat hearts [3] = assay: Global ischemia and reperfusion in isolated perfused (Langendorff) rat hearts: EDP, LDH release, double product; settings: 100 or 300 µM N-acetylcysteine; 30 minutes into reperfusion following 35 minutes of global ischemia (Fig. 3a, 3b)
[4] = given alone, time during ischemia for EDP to increase by 5 mm Hg
[5] = blocker (1 µM glyburide or 100 µM sodium 5-hydroxydecanoate) given with zofenopril prodrug (Fig. 1a)
[6] = blocker (1 µM glyburide or 100 µM sodium 5-hydroxydecanoate) given with zofenopril prodrug (Fig. 1b)

EC50 (isolated rat hearts [2]; concentration ratio 3:1 cromakalim to zofenopril, zofenopril component): 0.128 µM
EC50 (isolated rat hearts [2]; concentration ratio 12:1 cromakalim to zofenopril, zofenopril component): 0.48 µM
EC50 (isolated rat hearts [2]; concentration ratio 30:1 cromakalim to zofenopril, zofenopril component): 0.29 µM
EC50 (isolated rat hearts [2]; [4]): 75 µM
Structure (SMILES): C[C@H](CSC(=O)c1ccccc1)C(=O)N1C[C@@H](Sc2ccccc2)C[C@H]1C(=O)O [Zofenopril]
end diastolic pressure (EDP) (isolated rat hearts [1]; 100 µM zofenopril, 30 minutes into reperfusion following 25 minutes of global ischemia (Fig. 1a)): significantly reduced
cumulative LDH release (isolated rat hearts [1]; 100 µM zofenopril, 30 minutes into reperfusion following 25 minutes of global ischemia (Fig. 1b)): significantly reduced

Structure (SMILES): CC(C)(S)[C@@H](N)C(=O)O [Penicillamine]
protection of cardiac tissue (isolated rat hearts [1]; penicillamine (Fig. 4a, 4b)): protects cardiac tissue
LDH release (isolated rat hearts [1]; penicillamine (Fig. 4b)): significantly reduced
reperfusion double product (isolated rat hearts [1]; penicillamine, HR x LVDP divided by 1000 (Fig. 4a)): significantly improved

Structure (SMILES): C[C@H](CS)C(=O)N1C[C@@H](Sc2ccccc2)C[C@H]1C(=O)O [free-SH form of zofenopril]
cardioprotective effect (EDP and cumulative LDH release) (isolated rat hearts [1]; 400 µM zofenopril-SH, 30 minutes into reperfusion following 25 minutes of global ischemia (Fig. 2a, 2b)): cardioprotective effect

Structure (SMILES): CC(=O)N[C@@H](CS)C(=O)O [N-acetyl-cysteine, N-acetylcysteine]
protection of ischemic cardiac tissue (EDP and cumulative LDH release) (isolated rat hearts [3]): protected ischemic cardiac tissue

Structure (SMILES): COc1ccc(Cl)cc1C(=O)NCCc1ccc(S(=O)(=O)NC(=O)NC2CCCCC2)cc1 [Glyburide]
reversal of the cardioprotective effect of zofenopril-SH (isolated rat hearts [1]; 1 µM glyburide with 400 µM zofenopril-SH (Fig. 2a, 2b)): reverses the cardioprotective effect
reversal of the protective effect of N-acetylcysteine (isolated rat hearts [1]; 1 µM glyburide with N-acetylcysteine (Fig. 3a, 3b)): reversed
end diastolic pressure (EDP) (isolated rat hearts [1]; [5]): increase
cumulative LDH release (isolated rat hearts [1]; [6]): increase
reversal of the effects of penicillamine on double product and LDH release (isolated rat hearts [1]; glyburide with penicillamine (Fig. 4a, 4b)): partially reversed

EC50 (isolated rat hearts [2]; concentration ratio 3:1 cromakalim to zofenopril, cromakalim component): 5.15 µM
EC50 (isolated rat hearts [2]; concentration ratio 12:1 cromakalim to zofenopril, cromakalim component): 5.96 µM
EC50 (isolated rat hearts [2]; concentration ratio 30:1 cromakalim to zofenopril, cromakalim component): 9.3 µM
EC50 (isolated rat hearts [2]; [4]): 39.7 µM
Structure (SMILES): CC1(C)Oc2ccc(C#N)cc2C(N2CCCC2=O)C1O (racemic) [Cromakalim, (±)-6-cyano-3,4-dihydro-2,2-dimethyl-trans-4-(2-oxo-1-pyrrolidyl)-2H-benzo[6]-pyran-3-ol]

Structure (SMILES): CCCCCC(O)CCCC(=O)[O-].[Na+] (stereo not shown) [sodium-5-hydroxy-decanoate, sodium 5-hydroxydecanoate]
end diastolic pressure (EDP) (isolated rat hearts [1]; [5]): increase
cumulative LDH release (isolated rat hearts [1]; [6]): increase

Source: patent EP0555681A1, “Use of a combination of potassium channel activators and sulfhydryl containing compounds for the manufacture of a medicament for the treatment of ischemia and myocarolial infarct” (E.R. SQUIBB & SONS, INC., priority 1992, dated 1993)
